In PubChem BioAssay AID743384 (Vanderbilt Specialized Chemistry Center, 2014):
Calls of active or inactive are those of the source. How the calls were made is not given here.

Key:
[1] = target: Metabotropic glutamate receptor 7 (Rattus norvegicus) (UniProt P35400); assay: potentiation of glutamate EC20 at mGlu7 – cell-based, calcium mobilization, Galpha15, dose response (AID 743384); conditions: mGlu7/Ga15, calcium fluorescence PAM; stronger effect = higher value
[2] = target: Metabotropic glutamate receptor 7 (Homo sapiens) (UniProt Q14831); assay: as above; conditions: mGlu7/Ga15, calcium fluorescence PAM
Metabotropic glutamate receptor 7 (Homo sapiens), sequence (Q14831 whole entry, looked up): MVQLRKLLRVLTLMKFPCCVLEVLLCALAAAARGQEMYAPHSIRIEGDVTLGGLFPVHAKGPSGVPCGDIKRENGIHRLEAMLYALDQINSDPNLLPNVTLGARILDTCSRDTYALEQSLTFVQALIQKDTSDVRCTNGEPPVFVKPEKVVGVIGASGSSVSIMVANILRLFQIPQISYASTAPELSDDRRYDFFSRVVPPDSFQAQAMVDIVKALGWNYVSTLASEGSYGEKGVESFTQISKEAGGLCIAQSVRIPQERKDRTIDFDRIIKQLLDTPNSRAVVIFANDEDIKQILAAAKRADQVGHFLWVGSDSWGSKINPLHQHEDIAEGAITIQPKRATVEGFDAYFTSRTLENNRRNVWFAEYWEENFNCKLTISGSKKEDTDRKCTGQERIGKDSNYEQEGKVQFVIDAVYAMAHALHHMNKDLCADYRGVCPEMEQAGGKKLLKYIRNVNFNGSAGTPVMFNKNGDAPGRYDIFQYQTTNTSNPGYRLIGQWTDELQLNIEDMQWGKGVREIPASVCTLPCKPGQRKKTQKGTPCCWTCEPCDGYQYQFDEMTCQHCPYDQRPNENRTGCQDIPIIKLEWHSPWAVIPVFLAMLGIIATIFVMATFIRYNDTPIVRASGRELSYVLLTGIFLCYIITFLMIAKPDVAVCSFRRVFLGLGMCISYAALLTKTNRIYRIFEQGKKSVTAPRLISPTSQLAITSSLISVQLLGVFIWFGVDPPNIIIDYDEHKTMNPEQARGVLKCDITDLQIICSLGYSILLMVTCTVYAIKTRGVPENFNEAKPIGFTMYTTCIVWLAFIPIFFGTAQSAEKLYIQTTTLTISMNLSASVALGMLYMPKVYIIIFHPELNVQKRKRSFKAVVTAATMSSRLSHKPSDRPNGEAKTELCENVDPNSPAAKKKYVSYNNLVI

Metabotropic glutamate receptor 7 (Rattus norvegicus), sequence (P35400 whole entry, looked up): as the sequence (Q14831 whole entry, looked up) above, with R5G, A27V, N454H, S488T, A520S, D578N counted along it

| % glutamate max response [1] | EC50 [2] [µM] | Structure (SMILES) |
| --- | --- | --- |
| inactive |  | CCOc1ccc(-n2c(C)cc(C(=O)CSc3ccc(OC)cc3)c2C)cc1 |
| inactive |  | COC(=O)c1ccc(-n2c(C)cc(C(=O)COc3cccc(N(C)C)c3)c2C)cc1 |
| inactive |  | COC(=O)c1ccc(-n2c(C)cc(C(=O)CNc3ccc(C(=O)O)cc3)c2C)cc1 |
|  | 1.5 | COC(=O)c1ccc(-n2c(C)cc(C(=O)CSc3ccc(NC(C)=O)cc3)c2C)cc1 |
